Source: the supplement of paper PMC10307832

How the values were obtained:
Assay in all cases: relative viability (nuclei count vs DMSO), 5 days (fraction); higher = more cells survive
Tipifarnib + Linsitinib = compound: Cn1cncc1[C@@](N)(c1ccc(Cl)cc1)c1ccc2c(c1)c(-c1cccc(Cl)c1)cc(=O)n2C [Tipifarnib] + C[C@]1(O)C[C@@H](c2nc(-c3ccc4ccc(-c5ccccc5)nc4c3)c3c(N)nccn32)C1 [Linsitinib] (partner 1 µM)
How it was run: (§1)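 Relative viability is defined as nuclei in treated wells over nuclei in vehicle wells. Duplicate plates were run and medians reported. Lung cancer cell lines in 1536-well plates were dosed by pin tool one day after seeding, with one drug or with a fixed anchor-drug dose plus five library-drug doses (not always all listed) in √10 steps, and nuclei were counted after 5 days.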

Tipifarnib + Pemetrexed = compound: Cn1cncc1[C@@](N)(c1ccc(Cl)cc1)c1ccc2c(c1)c(-c1cccc(Cl)c1)cc(=O)n2C [Tipifarnib] + Nc1nc2[nH]cc(CCc3ccc(C(=O)N[C@@H](CCC(=O)O)C(=O)O)cc3)c2c(=O)[nH]1 [Pemetrexed] (partner 0.2 µM)
How it was run: as §1

Tipifarnib + Vorinostat = compound: Cn1cncc1[C@@](N)(c1ccc(Cl)cc1)c1ccc2c(c1)c(-c1cccc(Cl)c1)cc(=O)n2C [Tipifarnib] + O=C(CCCCCCC(=O)Nc1ccccc1)NO [Vorinostat] (partner 1 µM)
How it was run: as §1

Tipifarnib + Olaparib = compound: Cn1cncc1[C@@](N)(c1ccc(Cl)cc1)c1ccc2c(c1)c(-c1cccc(Cl)c1)cc(=O)n2C [Tipifarnib] + O=C(c1cc(Cc2n[nH]c(=O)c3ccccc23)ccc1F)N1CCN(C(=O)C2CC2)CC1 [Olaparib] (partner 8 µM)
How it was run: as §1

| Cell Line | relative viability (Tipifarnib + Linsitinib; first compound 0.01 µM) | relative viability (Tipifarnib + Linsitinib; first compound 0.03162 µM) | relative viability (Tipifarnib + Linsitinib; first compound 0.1 µM) | relative viability (Tipifarnib + Linsitinib; first compound 0.3162 µM) | relative viability (Tipifarnib + Linsitinib; first compound 1 µM) | relative viability (Tipifarnib + Pemetrexed; first compound 0.01 µM) | relative viability (Tipifarnib + Pemetrexed; first compound 0.03162 µM) | relative viability (Tipifarnib + Pemetrexed; first compound 0.1 µM) | relative viability (Tipifarnib + Pemetrexed; first compound 0.3162 µM) | relative viability (Tipifarnib + Pemetrexed; first compound 1 µM) | relative viability (Tipifarnib + Vorinostat; first compound 0.01 µM) | relative viability (Tipifarnib + Vorinostat; first compound 0.03162 µM) | relative viability (Tipifarnib + Vorinostat; first compound 0.1 µM) | relative viability (Tipifarnib + Vorinostat; first compound 0.3162 µM) | relative viability (Tipifarnib + Vorinostat; first compound 1 µM) | relative viability (Tipifarnib + Olaparib; first compound 0.01 µM) | relative viability (Tipifarnib + Olaparib; first compound 0.03162 µM) | relative viability (Tipifarnib + Olaparib; first compound 0.1 µM) | relative viability (Tipifarnib + Olaparib; first compound 0.3162 µM) | relative viability (Tipifarnib + Olaparib; first compound 1 µM) |
| --- | --- | --- | --- | --- | --- | --- | --- | --- | --- | --- | --- | --- | --- | --- | --- | --- | --- | --- | --- | --- |
| NCI-H2009 | 1.19 | 1.09 | 0.903 | 0.702 | 0.667 | 0.979 | 0.999 | 0.7 | 0.658 | 0.694 | 0.604 | 0.411 | 0.405 | 0.577 | 0.504 | 0.729 | 0.714 | 0.585 | 0.558 | 0.469 |
| NCI-H2023 | 0.598 | 0.503 | 0.37 | 0.329 | 0.384 | 0.242 | 0.289 | 0.19 | 0.212 | 0.198 | 0.598 | 0.366 | 0.289 | 0.186 | 0.137 | 0.489 | 0.36 | 0.373 | 0.298 | 0.343 |
| NCI-H2085 | 0.923 | 0.651 | 0.514 | 0.404 | 0.479 | 0.874 | 0.677 | 0.693 | 0.525 | 0.539 | 0.767 | 0.575 | 0.62 | 0.53 | 0.445 | 0.823 | 0.758 | 0.613 | 0.513 | 0.7 |
| NCI-H2087 | 0.797 | 0.583 | 0.514 | 0.5 | 0.447 | 0.58 | 0.569 | 0.383 | 0.326 | 0.373 | 0.668 | 0.363 | 0.292 | 0.248 | 0.222 | 0.538 | 0.499 | 0.341 | 0.281 | 0.275 |
| NCI-H2126 | 0.758 | 0.617 | 0.692 | 0.692 | 0.682 | 0.666 | 0.691 | 0.676 | 0.642 | 0.503 | 0.797 | 0.752 | 0.763 | 0.768 | 0.409 | 0.927 | 0.885 | 0.844 | 0.843 | 0.879 |
| NCI-H2228 | 0.771 | 0.416 | 0.611 | 0.382 | 0.494 | 0.364 | 0.34 | 0.361 | 0.296 | 0.333 | 0.398 | 0.453 | 0.493 | 0.314 | 0.3 | 0.84 | 0.523 | 0.471 | 0.386 | 0.478 |
| NCI-H2347 | 0.973 | 0.739 | 0.649 | 0.693 | 0.735 | 0.455 | 0.446 | 0.446 | 0.406 | 0.398 | 0.547 | 0.515 | 0.497 | 0.431 | 0.476 | 0.59 | 0.46 | 0.563 | 0.473 | 0.472 |
| NCI-H2405 | 0.952 | 0.885 | 0.845 | 0.821 | 0.79 | 1.03 | 1.07 | 0.964 | 0.967 | 0.866 | 1.12 | 0.967 | 0.817 | 0.881 | 0.547 | 0.88 | 0.899 | 0.903 | 0.801 | 0.838 |
| NCI-H3122 | 1.02 | 0.835 | 0.784 | 0.663 | 0.726 | 0.205 | 0.204 | 0.199 | 0.188 | 0.188 | 1.12 | 0.962 | 0.709 | 0.538 | 0.219 | 0.685 | 0.681 | 0.482 | 0.422 | 0.415 |
| PC-3 [JPC-3] | 0.956 | 0.899 | 0.872 | 0.769 | 0.736 | 1 | 1.11 | 0.592 | 0.448 | 0.42 | 0.823 | 0.674 | 0.529 | 0.426 | 0.386 | 1.19 | 0.978 | 0.981 | 0.775 | 0.654 |
| PC-14 | 0.98 | 0.965 | 0.713 | 0.432 | 0.437 | 0.123 | 0.154 | 0.157 | 0.146 | 0.149 | 0.698 | 0.324 | 0.455 | 0.236 | 0.157 | 0.278 | 0.206 | 0.279 | 0.176 | 0.176 |
| RERF-LC-KJ | 0.918 | 0.909 | 0.874 | 0.629 | 0.651 | 0.474 | 0.6 | 0.46 | 0.427 | 0.362 | 0.652 | 0.652 | 0.544 | 0.324 | 0.224 | 0.993 | 0.898 | 0.864 | 0.718 | 0.699 |
| SK-LU-1 | 0.986 | 0.728 | 0.642 | 0.631 | 0.67 | 0.961 | 0.931 | 0.723 | 0.63 | 0.5 | 0.771 | 0.635 | 0.492 | 0.417 | 0.471 | 0.527 | 0.419 | 0.525 | 0.395 | 0.292 |
| SK-MES-1 | 1.08 | 0.917 | 0.985 | 0.792 | 0.809 | 0.975 | 0.919 | 0.924 | 0.773 | 0.648 | 1.14 | 0.99 | 1.05 | 0.842 | 0.57 | 0.733 | 0.612 | 0.783 | 0.622 | 0.459 |
| SW 1573 | 0.7 | 0.709 | 0.518 | 0.387 | 0.365 | 0.781 | 0.719 | 0.458 | 0.383 | 0.245 | 0.701 | 0.434 | 0.308 | 0.312 | 0.179 | 0.428 | 0.305 | 0.307 | 0.233 | 0.27 |
| UMC-11 | 0.86 | 0.632 | 0.563 | 0.523 | 0.577 | 0.578 | 0.65 | 0.499 | 0.46 | 0.424 | 0.314 | 0.348 | 0.338 | 0.291 | 0.307 | 0.432 | 0.356 | 0.357 | 0.346 | 0.339 |
